Measurements as given in ChEMBL document CHEMBL1150715, “Puupehenone, a cytotoxic metabolite from a deep water marine sponge, Stronglyophora hartmani” (J Nat Prod, 1987).
In brackets after ≈: the same amount, converted by molar mass.

Columns and labels:
Candida albicans = assay: Antifungal activity against Candida albicans; assay type: functional
P388 [1] = assay: Cytotoxicity against mouse P388 cells; assay type: functional, cell-based
HCT-8 = assay: Cytotoxicity against human HCT8 cells; assay type: functional, cell-based
A549 = assay: Cytotoxicity against human A549 cells; assay type: functional, cell-based
P388 [2] = assay: In vivo cytotoxicity against mouse P388 cells at 25 mg/kg administered daily for 9 days relative to control; assay type: functional
MCF7 = assay: Cytotoxicity against human MCF7 cells; assay type: functional, cell-based

MIC (Candida albicans): 3 µg/mL (≈ 9.13 µM)
SMILES: CC1(C)CCC[C@]2(C)[C@H]3C=C4C=C(O)C(=O)C=C4O[C@@]3(C)CC[C@@H]12 [PUUPEHENONE]
IC50 (P388 [1]): 1 µg/mL (≈ 3.04 µM)
IC50 (HCT-8): 1 µg/mL (≈ 3.04 µM)
IC50 (A549): 0.1 µg/mL (≈ 0.304 µM)
T/C (P388 [2]): 119%
IC50 (MCF7): 0.1 µg/mL (≈ 0.304 µM)
